# Measured values taken from patent US20250145599A1, “CERTAIN CHEMICAL ENTITIES, COMPOSITIONS, AND METHODS” (Retune Pharma Inc., priority 2022, published 2025).
# Tests used:
# IGF-1R = IGF-1R (Homo sapiens, UniProt P08069); test: IGF-1R biochemical assay (ADP-Glo); details: read-out: IGF1R IC50
# Description: The inhibitory activity against IGF-1R was measured using ADP-Glo assay. The percent (%) inhibition at each concentration of compound is calculated based on and relative to the luminescence signal in the Max and Min control wells contained within each assay plate. The Max control wells contain enzyme and substrate as 0% inhibition, and the Min control wells only contain substrate without enzyme as 100% inhibition. The concentrations and % inhibition values for tested compounds are plotted and the concentration of compound required for 50% inhibition (IC50) is determined with a four-parameter logistic dose response equation.
# Table 3 provides IC50 data of representative compounds against IGF-1R using ADP-Glo assay. The IC50 data are designated within the following ranges: A: ≤0.10 μM, B: >0.10 μM to ≤1 μM, C: >1 μM to ≤20 μM
# Ba/F3-TEL-IGF-1R cells = test: CellTiter-Glo luminescent cell viability assay; type: cell-based; details: cellular IC50, Ba/F3-TEL-IGF-1R cells
# Description: The CellTiter-Glo luminescent cell viability assay was used to determine the inhibitory activity of the compounds against IGF-1R in Ba/F3-TEL-IGF-1R cells. […] The IC50 data are designated within the following ranges: A: ≤1 μM, B: >1 μM to ≤10 μM, C: >10 μM to ≤20 μM
# Sequence of IGF-1R (P08069 31-1367): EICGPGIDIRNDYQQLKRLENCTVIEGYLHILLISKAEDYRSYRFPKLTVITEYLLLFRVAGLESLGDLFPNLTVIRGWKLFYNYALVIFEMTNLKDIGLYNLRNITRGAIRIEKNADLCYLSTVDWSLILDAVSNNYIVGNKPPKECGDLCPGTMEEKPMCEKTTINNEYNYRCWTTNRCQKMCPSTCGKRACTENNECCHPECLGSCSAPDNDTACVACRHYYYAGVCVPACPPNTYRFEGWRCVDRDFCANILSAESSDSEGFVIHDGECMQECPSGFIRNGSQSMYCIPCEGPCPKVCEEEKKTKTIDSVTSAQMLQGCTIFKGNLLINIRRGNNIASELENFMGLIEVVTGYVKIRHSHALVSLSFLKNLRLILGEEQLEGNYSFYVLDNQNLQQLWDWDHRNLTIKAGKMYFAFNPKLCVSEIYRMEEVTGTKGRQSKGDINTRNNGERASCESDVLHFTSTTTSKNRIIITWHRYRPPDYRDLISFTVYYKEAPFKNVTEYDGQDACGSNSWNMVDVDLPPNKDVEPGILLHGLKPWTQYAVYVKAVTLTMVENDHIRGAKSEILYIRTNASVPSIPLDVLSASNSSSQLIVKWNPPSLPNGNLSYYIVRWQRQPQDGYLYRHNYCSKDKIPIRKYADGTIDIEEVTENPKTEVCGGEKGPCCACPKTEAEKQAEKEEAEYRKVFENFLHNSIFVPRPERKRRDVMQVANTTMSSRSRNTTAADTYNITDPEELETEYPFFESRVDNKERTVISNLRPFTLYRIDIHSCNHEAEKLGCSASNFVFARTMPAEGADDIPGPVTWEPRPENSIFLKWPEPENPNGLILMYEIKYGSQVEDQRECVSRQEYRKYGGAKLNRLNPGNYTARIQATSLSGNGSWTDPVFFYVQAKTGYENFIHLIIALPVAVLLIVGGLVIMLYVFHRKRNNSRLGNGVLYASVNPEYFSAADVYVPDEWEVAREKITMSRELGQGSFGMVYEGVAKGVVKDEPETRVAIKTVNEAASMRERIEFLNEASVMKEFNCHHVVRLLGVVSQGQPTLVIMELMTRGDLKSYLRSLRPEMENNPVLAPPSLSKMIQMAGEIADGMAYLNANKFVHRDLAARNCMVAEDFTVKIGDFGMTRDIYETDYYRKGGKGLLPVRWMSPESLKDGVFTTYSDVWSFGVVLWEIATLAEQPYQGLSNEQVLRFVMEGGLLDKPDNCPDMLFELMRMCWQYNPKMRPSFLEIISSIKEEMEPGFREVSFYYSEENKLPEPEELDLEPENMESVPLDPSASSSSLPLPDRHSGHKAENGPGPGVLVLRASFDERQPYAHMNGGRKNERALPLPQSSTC
IC50 (IGF-1R),IC50 (Ba/F3-TEL-IGF-1R cells),Compound
≤ 100 nM,≤ 1000 nM,"COc1cc(-c2ccccc2)nc2cc(-c3nn([C@H]4C[C@@](C)(O)C4)c(N)c3C(N)=O)c(F)cc12 [Example C051, 5-amino-3-(6-fluoro-4-methoxy-2-phenylquinolin-7-yl)-1-((1s,3s)-3-hydroxy-3-methylcyclobutyl)-1H-pyrazole-4-carboxamide]"
≤ 100 nM,≤ 1000 nM,"COc1cc(-c2ccccc2F)nc2c(F)c(-c3nn([C@H]4C[C@@](C)(O)C4)c(N)c3C(N)=O)ccc12 [Example C035, 5-amino-3-(8-fluoro-2-(2-fluorophenyl)-4-methoxyquinolin-7-yl)-1-((1s,3s)-3-hydroxy-3-methylcyclobutyl)-1H-pyrazole-4-carboxamide]"
≤ 100 nM,≤ 1000 nM,"COc1c(F)c(-c2ccccc2F)nc2c(F)c(-c3nn([C@H]4C[C@@](C)(O)C4)c(N)c3C(N)=O)ccc12 [Example C061, 5-amino-3-(3,8-difluoro-2-(2-fluorophenyl)-4-methoxyquinolin-7-yl)-1-((1s,3s)-3-hydroxy-3-methylcyclobutyl)-1H-pyrazole-4-carboxamide]"
≤ 100 nM,≤ 1000 nM,"COc1cc(-c2ccccc2)nc2c(F)c(-c3nn([C@H]4C[C@](C)(O)C4)c(N)c3C(N)=O)ccc12 [Example C045, 5-amino-3-(8-fluoro-4-methoxy-2-phenylquinolin-7-yl)-1-((lr,3r)-3-hydroxy-3-methylcyclobutyl)-1H-pyrazole-4-carboxamide]"
≤ 100 nM,≤ 1000 nM,"COc1cc(-c2ccccc2)nc2c(F)c(-c3nn([C@H]4C[C@@](C)(O)C4)c(N)c3C(N)=O)ccc12 [Example C034, 5-amino-3-(8-fluoro-4-methoxy-2-phenylquinolin-7-yl)-1-((1s,3s)-3-hydroxy-3-methylcyclobutyl)-1H-pyrazole-4-carboxamide]"
≤ 100 nM,≤ 1000 nM,"COc1c(F)c(-c2ccccc2F)nc2cc(-c3nn([C@H]4C[C@@](C)(O)C4)c(N)c3C(N)=O)ccc12 [Example C063, 5-amino-3-(3-fluoro-2-(2-fluorophenyl)-4-methoxyquinolin-7-yl)-1-((1s,3s)-3-hydroxy-3-methylcyclobutyl)-1H-pyrazole-4-carboxamide]"
≤ 100 nM,≤ 1000 nM,"COc1cc(-c2cccc(F)c2)nc2cc(-c3nn([C@H]4C[C@@](C)(O)C4)c(N)c3C(N)=O)ccc12 [Example C048, 5-amino-3-(2-(3-fluorophenyl)-4-methoxyquinolin-7-yl)-1-((1s,3s)-3-hydroxy-3-methylcyclobutyl)-1H-pyrazole-4-carboxamide]"
≤ 100 nM,≤ 1000 nM,"COc1c(F)c(-c2ccccc2)nc2c(F)c(-c3nn([C@H]4C[C@@](C)(O)C4)c(N)c3C(N)=O)ccc12 [Example C062, 5-amino-3-(3,8-difluoro-4-methoxy-2-phenylquinolin-7-yl)-1-((1s,3s)-3-hydroxy-3-methylcyclobutyl)-1H-pyrazole-4-carboxamide]"
≤ 100 nM,,"COc1cc(-c2ccccc2F)nc2cc(-c3nn([C@H]4C[C@](C)(O)C4)c(N)c3C(N)=O)ccc12 [Example C047, 5-amino-3-(2-(2-fluorophenyl)-4-methoxyquinolin-7-yl)-1-((1r,3r)-3-hydroxy-3-methylcyclobutyl)-1H-pyrazole-4-carboxamide]"
100 to 1000 nM,,"C[C@]1(O)C[C@@H](n2nc(-c3ccc4ccc(-c5ccccn5)nc4c3F)c(C(N)=O)c2N)C1 [Example C057, 5-amino-3-(8-fluoro-2-(pyridin-2-yl)quinolin-7-yl)-1-((1s,3s)-3-hydroxy-3-methylcyclobutyl)-1H-pyrazole-4-carboxamide]"
≤ 100 nM,,"C[C@]1(O)C[C@@H](n2nc(-c3ccc4c(OC(F)F)cc(-c5ccccc5)nc4c3)c(C(N)=O)c2N)C1 [Example C053, 5-amino-3-(4-(difluoromethoxy)-2-phenylquinolin-7-yl)-1-((1s,3s)-3-hydroxy-3-methylcyclobutyl)-1H-pyrazole-4-carboxamide]"
≤ 100 nM,,"C[C@]1(O)C[C@@H](n2nc(-c3ccc4c(OC(F)F)cc(-c5ccccc5)nc4c3F)c(C(N)=O)c2N)C1 [Example C044, 5-amino-3-(4-(difluoromethoxy)-8-fluoro-2-phenylquinolin-7-yl)-1-((1s,3s)-3-hydroxy-3-methylcyclobutyl)-1H-pyrazole-4-carboxamide]"
1000 to 20000 nM,,"C[C@]1(O)C[C@@H](n2nc(-c3ccc4c(O)cc(-c5ccccc5)nc4c3F)c(C(N)=O)c2N)C1 [Example C042, 5-amino-3-(8-fluoro-4-hydroxy-2-phenylquinolin-7-yl)-1-((1s,3s)-3-hydroxy-3-methylcyclobutyl)-1H-pyrazole-4-carboxamide]"
100 to 1000 nM,,"C[C@]1(O)C[C@@H](n2nc(-c3ccc4ccc(-c5ccc(F)cc5)nc4c3)c(C(N)=O)c2N)C1 [Example C039, 5-amino-3-(2-(4-fluorophenyl)quinolin-7-yl)-1-((1s,3s)-3-hydroxy-3-methylcyclobutyl)-1H-pyrazole-4-carboxamide]"
100 to 1000 nM,,"C[C@]1(O)C[C@@H](n2nc(-c3ccc4cc(F)c(-c5ccccc5)nc4c3F)c(C(N)=O)c2N)C1 [Example C059, 5-amino-3-(3,8-difluoro-2-phenylquinolin-7-yl)-1-((1s,3s)-3-hydroxy-3-methylcyclobutyl)-1H-pyrazole-4-carboxamide]"
≤ 100 nM,,"COc1cc(-c2ccccc2)nc2cc(-c3nn([C@H]4C[C@](C)(O)C4)c(N)c3C(N)=O)c(F)cc12 [Example C052, 5-amino-3-(6-fluoro-4-methoxy-2-phenylquinolin-7-yl)-1-((lr,3r)-3-hydroxy-3-methylcyclobutyl)-1H-pyrazole-4-carboxamide]"

# Further lines, the molecule ahead of its results:
Compound,IC50 (IGF-1R),IC50 (Ba/F3-TEL-IGF-1R cells)
"NC(=O)c1c(-c2ccc3ccc(-c4ccccc4)nc3c2)nn([C@H]2C[C@@H](CN3CCOCC3)C2)c1N [Example C012, 5-amino-1-((1s,3s)-3-(morpholinomethyl)cyclobutyl)-3-(2-phenylquinolin-7-yl)-1H-pyrazole-4-carboxamide]",≤ 100 nM,≤ 1000 nM
"C[C@]1(O)C[C@@H](n2nc(-c3ccc4ccc(-c5ccccc5)nc4c3)c(C(N)=O)c2N)C1 [Example C005, 5-amino-1-((1s,3s)-3-hydroxy-3-methylcyclobutyl)-3-(2-phenylquinolin-7-yl)-1H-pyrazole-4-carboxamide]",≤ 100 nM,≤ 1000 nM
"NC(=O)c1c(-c2ccc3ccc(-c4ccccc4)nc3c2)nn(C2CC(F)(F)C2)c1N [Example C030, 5-amino-1-(3,3-difluorocyclobutyl)-3-(2-phenylquinolin-7-yl)-1H-pyrazole-4-carboxamide]",100 to 1000 nM,
"CN1CCC(n2nc(-c3ccc4ccc(-c5ccccc5)nc4c3)c(C(N)=O)c2N)CC1 [Example C007, 5-amino-1-(1-methylpiperidin-4-yl)-3-(2-phenylquinolin-7-yl)-1H-pyrazole-4-carboxamide]",1000 to 20000 nM,
"NC(=O)c1c(-c2ccc3ccc(-c4ccccc4)nc3c2)nn([C@H]2C[C@@H](CN3CCNCC3)C2)c1N [Example C015, 5-amino-3-(2-phenylquinolin-7-yl)-1-((1s,3s)-3-(piperazin-1-ylmethyl)cyclobutyl)-1H-pyrazole-4-carboxamide]",≤ 100 nM,
"C[C@]1(O)C[C@H](n2nc(-c3ccc4ccc(-c5ccccc5)nc4c3)c(C(N)=O)c2N)C1 [Example C006, 5-amino-1-((1r,3r)-3-hydroxy-3-methylcyclobutyl)-3-(2-phenylquinolin-7-yl)-1H-pyrazole-4-carboxamide]",100 to 1000 nM,
"CCOC(=O)[C@]1(C)C[C@@H](n2nc(-c3ccc4ccc(-c5ccccc5)nc4c3)c(C(N)=O)c2N)C1 [Example C020, ethyl (1r,3r)-3-(5-amino-4-carbamoyl-3-(2-phenylquinolin-7-yl)-1H-pyrazol-1-yl)-1-methylcyclobutane-1-carboxylate]",100 to 1000 nM,
"NC(=O)c1c(-c2ccc3ccc(-c4ccccc4)nc3c2)nn(C2COC2)c1N [Example C029, 5-amino-1-(oxetan-3-yl)-3-(2-phenylquinolin-7-yl)-1H-pyrazole-4-carboxamide]",1000 to 20000 nM,
"CC(=O)N1CCC(n2nc(-c3ccc4ccc(-c5ccccc5)nc4c3)c(C(N)=O)c2N)CC1 [Example C010, 1-(1-acetylpiperidin-4-yl)-5-amino-3-(2-phenylquinolin-7-yl)-1H-pyrazole-4-carboxamide]",1000 to 20000 nM,
"C[C@]1(O)C[C@@H](n2nc(-c3ccc4ccc(-c5ccccc5)nc4c3F)c(C(N)=O)c2N)C1 [Example C028, 5-amino-3-(8-fluoro-2-phenylquinolin-7-yl)-1-((1s,3s)-3-hydroxy-3-methylcyclobutyl)-1H-pyrazole-4-carboxamide]",≤ 100 nM,
"CCOC(=O)[C@H]1C[C@@H](n2nc(-c3ccc4ccc(-c5ccccc5)nc4c3)c(C(N)=O)c2N)C1 [Example C011, ethyl (1s,3s)-3-(5-amino-4-carbamoyl-3-(2-phenylquinolin-7-yl)-1H-pyrazol-1-yl)cyclobutane-1-carboxylate]",100 to 1000 nM,
"NC(=O)c1c(-c2ccc3ccc(-c4ccccc4)nc3c2)nn(C2CCN(C(N)=O)CC2)c1N [Example C003, 4-(5-amino-4-carbamoyl-3-(2-phenylquinolin-7-yl)-1H-pyrazol-1-yl)piperidine-1-carboxamide]",1000 to 20000 nM,
"NC(=O)c1c(-c2ccc3ccc(-c4ccccc4)nc3c2)nn(C2CC(=O)C2)c1N [Example C001, 5-amino-1-(3-oxocyclobutyl)-3-(2-phenylquinolin-7-yl)-1H-pyrazole-4-carboxamide]",1000 to 20000 nM,
